Measured values reported in BindingDB's records for doi:10.7270/Q2V986KM (Burnham Center For Chemical Genomics, 2011).

What follows are compounds tested against T1, Carboxy-terminal domain RNA polymerase II polypeptide A small phosphatase 1 (Homo sapiens, UniProt Q9GZU7) (assay: Ultra-high-throughput screening actives, CTDSP1 enzyme inhibition, concentration-response testing, biochemical, absorbance detection (AID 540297)).
T1 sequence (Q9GZU7 whole entry): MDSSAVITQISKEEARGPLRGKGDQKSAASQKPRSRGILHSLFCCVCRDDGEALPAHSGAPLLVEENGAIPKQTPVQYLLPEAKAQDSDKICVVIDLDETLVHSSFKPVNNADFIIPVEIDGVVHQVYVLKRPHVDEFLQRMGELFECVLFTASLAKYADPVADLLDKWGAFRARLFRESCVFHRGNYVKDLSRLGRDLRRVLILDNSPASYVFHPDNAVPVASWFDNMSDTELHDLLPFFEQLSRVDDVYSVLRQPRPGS

IC50 [µM]	Structure (SMILES)
2.09	CON=C(C(=O)N[C@@H]1C(=O)N2C(C(=O)O)=C(COC(N)=O)CS[C@H]12)c1ccco1
6.07	Cc1ccc(-n2[nH]c(C)c(CN=Nc3ccc([N+](=O)[O-])cc3[N+](=O)[O-])c2=O)cc1 [SMR000171521]
3.17	CC(=NNC(=O)c1cccc(N=NC(C)c2ccco2)c1)c1ccco1 (configuration not stated) [N-[1-(2-furanyl)ethylideneamino]-3-[2-[1-(2-furanyl)ethylidene]hydrazinyl]benzamide]
5.96	C[N+]1=C(CC=Nc2ccccc2Cl)C(C)(C)c2ccccc21 [SMR000173746]
2	C=CCOc1ccc(CN=Nc2ccc(S(=O)(=O)Nc3ccccc3C(=O)O)cc2[N+](=O)[O-])cc1OC [2-[[4-[2-[(3-methoxy-4-prop-2-enoxy-phenyl)methylidene]hydrazinyl]-3-nitro-phenyl]sulfonylamino]benzoic acid]
> 80	Cc1[nH][nH]c(=O)c1CCC(=O)NN=Cc1ccco1
5.27	O=C(O)CNC(=O)Cc1sc(NNc2nc(O)cs2)nc1O
19.3	C=CCC1C=C(/C=C/c2nc(O)c([N+](=O)[O-])c(=O)[nH]2)C=C(OC)C1=O (configuration not stated) [MLS000716350]
3.44	N#CC1=c2sc(=Cc3ccco3)c(=O)n2C(=N)C(C#N)C1c1ccco1 (configuration not stated) [5-amino-7-(furan-2-yl)-2-(furan-2-ylmethylidene)-3-oxo-7H-[1,3]thiazolo[3,2-a]pyridine-6,8-dicarbonitrile]
6.26	O=C(CCCC(=O)Nc1cccc(Br)c1)N/N=C/C1C=C([N+](=O)[O-])C=CC1=O (configuration not stated)
4.06	Cc1ccc(C(=O)N[n+]2cc(O)[c-](-c3nc(-c4cccc([N+](=O)[O-])c4)cs3)c2N)cc1 [MLS000391743]
3.69	Cc1ccc(-c2csc(-n3[nH]c(C)c(N=Nc4ccccc4O)c3=O)n2)cc1
> 80	O=c1c(Cl)c(N=NCc2ccc(Br)cc2)cnn1-c1ccccc1
3.29	COc1ccc(N/C(C)=[N+](\C)CCNS(=O)(=O)c2ccc(Cl)cc2)cc1
4.28	CCOc1cc(CN=Nc2nc(O)c(CC(=O)O)s2)ccc1OCc1ccccc1Cl
12.4	COc1cc(CN=Nc2nc(O)c(CC(=O)O)s2)ccc1OCc1ccc(Cl)cc1 [2-[2-[2-[[4-[(4-chlorophenyl)methoxy]-3-methoxy-phenyl]methylidene]hydrazinyl]-4-oxidanylidene-1,3-thiazol-5-yl]ethanoic acid]
11.5	Cc1ccc2c(c1)=C(NNC(=O)c1ccc(NS(=O)(=O)c3cccs3)cc1)C(=O)N=2 [N-[4-[[(5-methyl-2-oxoindol-3-yl)amino]carbamoyl]phenyl]thiophene-2-sulfonamide]
1.99	Cc1cccc(NC(=O)CN2C(=O)/C(=N\NC(=O)c3ccccc3O)c3ccccc32)c1 [MLS000548432]
5.01	Cc1cc(C)n2c(SCC(=O)C(C#N)c3nc4ccccc4[nH]3)nnc2n1 (configuration not stated) [2-(1,3-dihydrobenzimidazol-2-ylidene)-4-[(5,7-dimethyl-[1,2,4]triazolo[4,3-a]pyrimidin-3-yl)sulfanyl]-3-oxidanylidene-butanenitrile]
6.44	O=C1Nc2ccc([N+](=O)[O-])cc2/C1=N/NC(=O)c1ccccc1Cl [2-chloro-N'-(5-nitro-2-oxoindol-3-yl)benzohydrazide]
12.8	COc1ccc(/C=C/C(=O)Oc2cccc(C=NNC(=O)c3cccc(F)c3)c2)cc1 [[3-[[(3-fluorobenzoyl)hydrazinylidene]methyl]phenyl] (E)-3-(4-methoxyphenyl)prop-2-enoate]

IC50 [µM]	Structure (SMILES)
12.9	Cc1ccc(-c2csc(-c3c(O)cn(NC(=O)c4ccco4)c3N)n2)cc1 [SMR000363171]
24.1	Cc1ccc(C(=O)NN=C/C=C/c2ccc(Br)cc2)cn1 [MLS000723380]
4.83	C/C(C=NNC(=O)c1ccc(Br)cc1)=C\c1ccccc1 [SMR000140417]
3.73	COc1ccccc1N/C(C)=[N+](\C)CCNS(=O)(=O)c1ccc(Cl)cc1 [MLS001165874]
5.15	CC1=CC(=NNC(=O)c2ccccc2O)c2ccccc2C1=O [MLS000685531]
5.38	CCCCCn1cc(O)c(-c2nc(-c3ccc(Cl)cc3)cs2)c1N [5-azanyl-4-[4-(4-chlorophenyl)-1,3-thiazol-2-yl]-1-pentyl-2H-pyrrol-3-one]
3.09	O=NCc1cccn1-c1cccc(C(=O)O)c1 [3-[2-(hydroximinomethyl)pyrrol-1-yl]benzoic acid]
4.92	O=C(NN=C/C=C/c1ccc(Br)cc1)c1ccc2c(c1)OCO2 [Benzo[1,3]dioxole-5-carboxylic acid [3-(4-bromo-phenyl)-allylidene]-hydrazide]
15.5	O=C(O)CCC(N=Nc1ccc(S(=O)(=O)N2CCCC2)cc1[N+](=O)[O-])c1cccs1 (configuration not stated) [4-[(2-nitro-4-pyrrolidin-1-ylsulfonyl-phenyl)hydrazinylidene]-4-thiophen-2-yl-butanoic acid]
3.4	CC(=O)C(C[N+]1(C)CCCCC1)N=O (configuration not stated)
1.85	O=C(N/N=C/C1C=C(Cl)C=C([N+](=O)[O-])C1=O)c1cc(-c2ccccn2)nc2ccccc12 (configuration not stated) [MLS000773704]
8.55	C=c1[nH]c(=Cc2ccc(CNC(=O)C(=O)Nc3ccccc3)o2)c(O)c1C(=O)OCC [(5E)-5-[[5-[[(2-anilino-1,2-dioxoethyl)amino]methyl]-2-furanyl]methylidene]-2-methyl-4-oxo-1H-pyrrole-3-carboxylic acid ethyl ester]
5.92	CC=CC=CC(=O)C1C(=O)[C@]2(C)C(=O)C(C)(O)[C@H]1[C@H]([C@]1(C)OC(=O)C(C)C1=O)[C@H]2C(=O)C=CC=CC (stereo partly drawn) [(1S,4R,6E,7S,8R)-8-[(2E,4E)-hexa-2,4-dienoyl]-2-hydroxy-7-[(2S)-5-hydroxy-2,4-dimethyl-3-oxofuran-2-yl]-6-[(2E,4E)-1-hydroxyhexa-2,4-dienylidene]-2,4-dimethylbicyclo[2.2.2]octane-3,5-dione]
5.58	Cc1cccc(C(=O)/N=c2\c(C#N)cc3c(=O)n4cccc(C)c4nc3n2Cc2ccco2)c1 [N-[3-cyano-1-(furan-2-ylmethyl)-10-methyl-5-oxodipyrido[3,4-c:1',2'-f]pyrimidin-2-ylidene]-3-methylbenzamide]
6	Cc1ccc(OCC(=O)NN=C/C=C/c2ccco2)cc1 [MLS000563872]
10.8	O=[N+]([O-])c1cccc(-c2csc(N=NCc3cccc(O)c3)n2)c1 [3-[[[4-(3-nitrophenyl)-1,3-thiazol-2-yl]hydrazinylidene]methyl]phenol]
5.86	C/C(Nc1ccc(F)cc1)=[N+](/C)CCNS(=O)(=O)c1ccc(Cl)cc1
1.7	CC(=NNC(=O)c1cc(-c2cccc([N+](=O)[O-])c2)n[nH]1)C1C=CC=CC1=O (configuration not stated) [3-(3-nitrophenyl)-N'-[(1E)-1-(6-oxo-1-cyclohexa-2,4-dienylidene)ethyl]-1H-pyrazole-5-carbohydrazide]
8.6	O=C(NN=C/C(Cl)=C/c1ccccc1)c1ccc2c(c1)OCO2 [SMR001240783]
8.03	O=NCc1cc(Br)ccc1OCC(=O)O [2-[4-bromanyl-2-(hydroxyiminomethyl)phenoxy]ethanoic acid]
4.28	CC(N=Nc1ccc(Cl)c(C(=O)O)c1)c1ccc[nH]1 (configuration not stated) [2-chloro-5-[2-[(1Z)-1-pyrrol-2-ylideneethyl]hydrazinyl]benzoic acid]
